In patent publication US12398111B2, “Triazine compounds and pharmaceutical use thereof” (Japan Tobacco Inc., priority 2014, dated 2025):

biological target: T1, human mPGES-1 (Homo sapiens, UniProt O14684); assay: Evaluation of human mPGES-1 enzyme inhibitory activity (PGE2 measured by HTRF, microsome fraction of CHO-S cells expressing human mPGES-1); assay type: biochemical; settings: IC50 value; microsome fraction of CHO-S cells expressing human mPGES-1, PGE2 by HTRF
T1 construct: made in house; host or cells: FreeStyle CHO-S cells (Chinese hamster ovary), transient transfection with pcDNA3.1(+)/human mPGES-1; microsome fraction used
T1 sequence (O14684 1-152): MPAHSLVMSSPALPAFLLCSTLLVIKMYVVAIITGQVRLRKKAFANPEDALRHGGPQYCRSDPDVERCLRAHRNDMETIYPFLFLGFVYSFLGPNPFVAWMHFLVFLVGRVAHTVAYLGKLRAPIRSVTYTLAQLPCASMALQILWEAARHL
Summary of the method: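 Enzyme source: microsomes from CHO-S cells transfected with human mPGES-1 and cultured 48 hr, diluted to 5 μg/mL protein in reduced GSH (12.5 mmol/L KPB solution). Test articles were in 0.1 mol/L potassium phosphate pH 7.4, final DMSO 2% (v/v). PGE2 formed was quantified by HTRF.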

Structure (SMILES) | IC50
CC(C)(C(=O)NCc1ccc(Cl)c(-c2nc(O)nc(-c3ccc(OCC4CCCCC4)cc3)n2)c1)C(F)(F)F [Example 1-172] | 17 nM
COCc1ccc(Cl)c(-c2nc(O)nc(-c3ccc(OCC(C)(C)C)cc3)n2)c1 [Example 1-197] | 289 nM
CC(C)(C)C1CCC2(CC1)CN(Cc1ccc(Cl)c(-c3nc(O)nc(-c4ccccc4)n3)c1)C2=O (single isomer, unassigned) [Example 1-266, 7-tert-butyl-2-[4-chloro-3-(4-hydroxy-6-phenyl-1,3,5-triazin-2-yl)benzyl]-2-azaspiro[3.5]nonan-1-one] | 11 nM
Cc1cccc(-c2nc(O)nc(-c3cc(CNC(=O)C(C)(C)C)ccc3Cl)n2)c1 [Example 1-64] | 1.9 nM
CC(C)Cc1ccc(-c2nc(O)nc(-c3cc(CN(C)C(=O)C(C)(C)C(F)(F)F)ccc3Cl)n2)cc1 [Example 1-206] | 14 nM
CC(C)(C)COc1ccc(-c2nc(O)nc(-c3cc(CCO)ccc3Cl)n2)cc1 [Example 1-198] | 14 nM
CC(C)COCc1ccc(Cl)c(-c2nc(O)nc(-c3ccc(OCC(C)(C)C)cc3)n2)c1 [Example 1-204] | 34 nM
CC1CCC2(CC1)CN(Cc1ccc(Cl)c(-c3nc(O)nc(-c4ccccc4)n3)c1)C2=O (single isomer, unassigned) [Example 1-257] | 17 nM
O=C(NCc1ccc(Cl)c(-c2nc(O)nc(-c3ccccc3)n2)c1)C12CC3CC(CC(C3)C1)C2 [Example 1-65] | 8.6 nM
Cc1ccc(CO)cc1-c1nc(O)nc(-c2ccc(C(F)(F)F)cc2)n1 [Example 1-45] | 138 nM
CC1CCC(CO)(C(=O)NCc2ccc(Cl)c(-c3nc(O)nc(-c4ccccc4)n3)c2)CC1 (single isomer, unassigned) [Example 1-256] | 98 nM
NCc1ccc(Cl)c(-c2nc(O)nc(-c3ccc(C(F)(F)F)cc3)n2)c1 [Example 1-17] | 735 nM
CCc1cccc(-c2nc(O)nc(-c3cc(CNC(=O)C(C)(C)C(F)(F)F)ccc3Cl)n2)c1 [Example 1-110] | 0.9 nM
CC(=O)NCc1ccc(Cl)c(-c2nc(O)nc(-c3ccc(C(F)(F)F)cc3)n2)c1 [Example 1-16] | 10 nM
CCN(Cc1ccc(Cl)c(-c2nc(O)nc(-c3ccc(OCC(C)(C)C)cc3)n2)c1)C(=O)OC(C)(C)C [Example 1-209] | 59 nM
O=C(NCc1ccc(Cl)c(-c2nc(O)nc(-c3ccccc3)n2)c1)C1(CO)CCCC1 [Example 1-254] | 30 nM
CC(C)(C)C(=O)NCc1ccc(Cl)c(-c2nc(O)nc(-c3ccc(C(F)(F)F)cc3)n2)c1 [Example 1-24] | 0.6 nM
CC(C)c1cc(-c2nc(O)nc(-c3cc(CNC(=O)C(C)(C)C(F)(F)F)ccc3Cl)n2)ccc1F [Example 1-117] | 1.6 nM
COCCOc1ccc(-c2nc(O)nc(-c3cc(CNC(=O)C(C)(C)C(F)(F)F)ccc3Cl)n2)cc1 [Example 1-144] | 0.9 nM
CC(C)(C(=O)NCc1ccc(Cl)c(-c2nc(O)nc(-c3ccc(F)c(Cl)c3)n2)c1)C(F)(F)F [Example 1-153] | 0.5 nM
CO[C@](C)(C(=O)NCc1ccc(Cl)c(-c2nc(O)nc(-c3ccc(F)c(C4CC4)c3)n2)c1)C(F)(F)F [Example 1-165] | 0.9 nM
CCc1cc(-c2nc(O)nc(-c3cc(CNC(=O)C4(C(F)(F)F)CC4)ccc3Cl)n2)ccc1F [Example 1-152] | 0.4 nM
OCc1ccc(Cl)c(-c2nc(O)nc(-c3ccc(C(F)(F)F)cc3)n2)c1 [Example 1-12] | 15 nM
COC(=O)NCc1ccc(Cl)c(-c2nc(O)nc(-c3ccc(C(F)(F)F)cc3)n2)c1 [Example 1-22] | 2.7 nM
Cc1ccc(C#N)c(-c2nc(O)nc(-c3ccc(C#Cc4ccccc4)cc3)n2)c1 [Example 1-174] | 3.1 nM

Structure (SMILES) | IC50
CCCc1cccc(-c2nc(O)nc(-c3cc(CNC(=O)C(C)(C)C)ccc3Cl)n2)c1 [Example 1-50] | 0.9 nM
CO[C@](C)(C(=O)N(C)Cc1ccc(Cl)c(-c2nc(O)nc(-c3ccccc3)n2)c1)C(F)(F)F [Example 1-242] | 82 nM
CN(Cc1ccc(Cl)c(-c2nc(O)nc(-c3ccccc3)n2)c1)C(=O)c1ccccc1 [Example 1-230] | 750 nM
O=C(O)Cc1ccc(Cl)c(-c2nc(O)nc(-c3ccc(C(F)(F)F)cc3)n2)c1 [Example 1-23] | 134 nM
NC(=O)c1ccc(Cl)c(-c2nc(O)nc(-c3ccc(OCC4CC4)cc3)n2)c1 [Example 1-193] | 8700 nM
O=C(NCc1ccc(Cl)c(-c2nc(O)nc(-c3ccccc3)n2)c1)C1(C(F)(F)F)CCC1 [Example 1-70] | 0.7 nM
COC(C)(C)C(=O)NCc1ccc(Cl)c(-c2nc(O)nc(-c3ccccc3)n2)c1 [Example 1-53] | 4.5 nM
CC(C)C(=O)NCc1ccc(Cl)c(-c2nc(O)nc(-c3ccc(C(F)(F)F)cc3)n2)c1 [Example 1-28] | 0.6 nM
O=C1N(Cc2ccc(Cl)c(-c3nc(O)nc(-c4ccccc4)n3)c2)CC12CCCC2 [Example 1-255] | 45 nM
Cc1cc(-c2nc(O)nc(-c3cc(CNC(=O)C4(C(F)(F)F)CC4)ccc3Cl)n2)ccc1C(F)(F)F [Example 1-149] | 0.8 nM
CN(Cc1ccc(Cl)c(-c2nc(O)nc(-c3ccccc3)n2)c1)C(=O)C1CCCC1 [Example 1-228] | 672 nM
CO[C@](C)(C(=O)NCc1ccc(Cl)c(-c2nc(O)nc(-c3ccc(C(F)(F)F)cc3)n2)c1)C(F)(F)F [Example 1-126] | 0.8 nM
CCc1cccc(-c2nc(O)nc(-c3cc(CNC(=O)[C@@](C)(OC)C(F)(F)F)ccc3Cl)n2)c1 [Example 1-121] | 1.2 nM
COCc1ccc(Cl)c(-c2nc(O)nc(-c3ccc(C(F)(F)F)cc3)n2)c1 [Example 1-19] | 411 nM
Cc1ccc(C)c(-c2nc(O)nc(-c3ccc(C(F)(F)F)cc3)n2)c1 [Example 1-2] | 138 nM
CCCc1cccc(-c2nc(O)nc(-c3cc(CNC(=O)[C@@](C)(OC)C(F)(F)F)ccc3Cl)n2)c1 [Example 1-104] | 1.5 nM
CCCC(=O)N(C)Cc1ccc(Cl)c(-c2nc(O)nc(-c3ccccc3)n2)c1 [Example 1-225] | 4200 nM
CC(C)(C)COc1ccc(-c2nc(O)nc(-c3cc(CNCC(F)(F)F)ccc3Cl)n2)cc1 [Example 1-212] | 32 nM
CO[C@](C)(C(=O)NCc1ccc(Cl)c(-c2nc(O)nc(-c3cccc(C(C)C)c3)n2)c1)C(F)(F)F [Example 1-108] | 0.6 nM
CN(Cc1ccc(Cl)c(-c2nc(O)nc(-c3ccccc3)n2)c1)C(=O)C(C)(C)C [Example 1-221] | 79 nM
CCc1ccc(C)c(-c2nc(O)nc(-c3ccc(C(F)(F)F)cc3)n2)c1 [Example 1-14] | 1410 nM
CC(C)(C)OC(=O)NCc1ccc(Cl)c(-c2nc(O)nc(-c3ccc(C(F)(F)F)cc3)n2)c1 [Example 1-15] | 7.4 nM
CC(C)(C)c1cccc(-c2nc(O)nc(-c3cc(CNC(=O)C4(C(F)(F)F)CCCC4)ccc3Cl)n2)c1 [Example 1-80] | 3.1 nM
CCc1cc(-c2nc(O)nc(-c3cc(CNC(=O)[C@@](C)(OC)C(F)(F)F)ccc3Cl)n2)ccc1F [Example 1-151] | 0.4 nM

The remaining lines, values ahead:

IC50 | Structure (SMILES)
92 nM | Oc1nc(-c2ccc(C(F)(F)F)cc2)nc(-c2c(Cl)cccc2OCc2ccncc2)n1 [Example 2-61]
1900 nM | Cc1cccc(C)c1-c1nc(O)nc(-c2ccc(C(C)C)cc2)n1 [Example 2-8]
31 nM | CCCCOc1cccc(Cl)c1-c1nc(O)nc(-c2ccc(C(F)(F)F)cc2)n1 [Example 2-31]
14 nM | Oc1nc(-c2ccc(C#Cc3ccccc3)cc2)nc(-c2c(OCc3cccc(C(F)(F)F)n3)cccc2C(F)(F)F)n1 [Example 2-121]
35 nM | Cc1cccc(COc2cccc(C(F)(F)F)c2-c2nc(O)nc(-c3ccc(C#Cc4ccc(OC(F)(F)F)cc4)cc3)n2)n1 [Example 2-130]
16 nM | Cc1c(CNS(=O)(=O)C(C)(C)C)ccc(Cl)c1-c1nc(O)nc(-c2ccc(C(F)(F)F)cc2)n1 [Example 3-10]
4.4 nM | Oc1nc(-c2ccc(C#Cc3ccccc3)cc2)nc(-c2c(OCc3ncccc3F)cccc2C(F)(F)F)n1 [Example 2-111]
12 nM | Oc1nc(-c2ccc(C(F)(F)F)cc2)nc(-c2c(Cl)cccc2OCc2ccccn2)n1 [Example 2-45]
84 nM | CCCCCOc1ccc(-c2nc(O)nc(-c3c(C)cccc3C)n2)cc1 [Example 2-69]
5.8 nM | Oc1nc(-c2ccc(C#CC3CCCCC3)cc2)nc(-c2c(Cl)cccc2OCc2ccccn2)n1 [Example 2-76]
211 nM | Cc1cccc(Cl)c1-c1nc(O)nc(-c2ccc(C(F)(F)F)cc2)n1 [Example 2-19]
2.7 nM | Oc1nc(-c2ccc(C#CC3CCCC3)cc2)nc(-c2c(Cl)cccc2OCc2ccccn2)n1 [Example 2-81]
34 nM | Cc1ccc(Cl)c(-c2nc(O)nc(-c3ccc(C(F)(F)F)cc3)n2)c1OCc1ccccn1 [Example 3-13]
3700 nM | Cc1cccc(C)c1-c1nc(O)nc(-c2cccc(C(F)(F)F)c2)n1 [Example 2-28]
1 nM | Cc1c(CNC(=O)C(C)(C)C)ccc(Cl)c1-c1nc(O)nc(-c2ccc(C(F)(F)F)cc2)n1 [Example 3-8]
25 nM | Cc1cccc(C)c1-c1nc(O)nc(-c2ccc(OCC3CCCCCC3)cc2)n1 [Example 2-57]
283 nM | Cc1cccnc1COc1cccc(Cl)c1-c1nc(O)nc(-c2ccc(OCC(C)C)cc2)n1 [Example 2-72]
4.1 nM | CC(C)(C)C#Cc1ccc(-c2nc(O)nc(-c3c(Cl)cccc3OCc3ccccn3)n2)cc1 [Example 2-94]

same assay, conditions: at 30 μM test article

inhibition at 30 µM | Structure (SMILES)
5% | Cc1ccc(C(=O)O)cc1-c1nc(O)nc(-c2ccc(C(F)(F)F)cc2)n1 [Example 1-10]
41% | O=C(O)c1ccc(Cl)c(-c2nc(O)nc(-c3ccc(OCC4CC4)cc3)n2)c1 [Example 1-192]
